The values below come from publication PMC8308496, “RP-18 TLC Chromatographic and Computational Study of Skin Permeability of Steroids” (Pharmaceuticals, 2021).

The structures appear in SMILES notation. Read-outs that look alike come from different tables or passages of the source.

The nature of series [1]: RP-18 thin layer chromatography (RM). The class given is physicochemical. The conditions noted are these: RP-18 F254s TLC, acetonitrile/pH 7.4 phosphate buffered saline 70:30 (v/v); RM = log (1/Rf−1). Here is the method: Thin layer chromatography was performed according to [33] on 10 × 20 cm glass-backed RP-18 F254s TLC plates from Merck, Germany (layer thickness 0.25 mm). Before use, the plates were prewashed with methanol-dichloromethane 1:1 (v/v) and dried overnight in ambient conditions. […] The chromatographic plates were developed in a vertical chromatographic chamber lined with filter paper and previously saturated with the mobile phase vapor for 20 min. The mobile phase consisted of acetonitrile/pH 7.4 phosphate buffered saline 70:30 (v/v). The development distance was 95 mm from the plate bottom edge. After development, the plates were dried at room temperature and examined under UV light (254 nm) and with the Desaga CD60 densitometer (Multiwavelength Scan, 200–300 nm at 20 nm intervals). All chromatograms were repeated in duplicate, and the mean Rf values were used in further investigations. The chromatographic parameter RM considered in these investigations was defined by Bate-Smith and Westall: RM= log (1/Rf−1).

For series [2] the following is noted: experimental, cited from earlier work.
The mark [3] stands for this setting: hydrocortisone esters 17 to 27, ref 40 (Anderson et al.).
The mark [4] stands for this setting: nonsteroid compounds 39 to 46, source not given.

`C[C@@H]1C[C@H]2[C@@H]3CCC4=CC(=O)C=C[C@]4(C)[C@@]3(F)[C@@H](O)C[C@]2(C)[C@@]1(O)C(=O)CO` [compound 1, Dexamethasone] had an RM in series [1] of −0.35.

For `C[C@]12CCC(=O)C=C1CC[C@@H]1[C@@H]2[C@@H](O)C[C@@]2(C)[C@H]1CC[C@]2(O)C(=O)CO` [compound 2, Hydrocortisone], the “logKp^exp” value in series [2] (compounds 1 to 16) is reported as −4.79. In addition, in series [1], the RM is recorded as −0.33.

As for `CC(=O)[C@H]1CC[C@H]2[C@@H]3CCC4=CC(=O)CC[C@]4(C)[C@H]3CC[C@]12C` [compound 3, Progesterone], the RM in series [1] came to 0.60.

With `C[C@]12C=CC(=O)C=C1CC[C@@H]1[C@@H]2[C@@H](O)C[C@@]2(C)[C@H]1CC[C@]2(O)C(=O)CO` [compound 4, Prednisolone], in series [2] (compounds 1 to 16), the “logKp^exp” value is −4.35. Moreover, the RM in series [1] was −0.33.

As to `C[C@]12CC[C@@H]3c4ccc(O)cc4CC[C@H]3[C@@H]1CCC2=O` [compound 5, Estrone], the “logKp^exp” value in series [2] (compounds 1 to 16) is recorded as −2.44. Also, in series [1], the RM is 0.09.

Regarding `C[C@]12CCC(=O)C=C1CC[C@@H]1[C@@H]2[C@@H](O)C[C@]2(C=O)[C@@H](C(=O)CO)CC[C@@H]12` [compound 6, Aldosterone], the “logKp^exp” value in series [2] (compounds 1 to 16) was −4.41.

As to `CC(=O)[C@H]1CC[C@H]2[C@@H]3CC=C4C[C@@H](O)CC[C@]4(C)[C@H]3CC[C@]12C` [compound 8, Pregnenolone], the “logKp^exp” value in series [2] (compounds 1 to 16) was −2.82.

`CC(=O)[C@@]1(O)CC[C@H]2[C@@H]3CCC4=CC(=O)CC[C@]4(C)[C@H]3CC[C@@]21C` [compound 9, 17-α-Hydroxyprogesterone]: the “logKp^exp” value in series [2] (compounds 1 to 16) is −3.22.

Turning to `C[C@]12CC[C@H]3[C@@H](CCC4=CC(=O)CC[C@@]43C)[C@@H]1CC[C@@H]2C(=O)CO` [compound 11, Deoxycorticosterone], the “logKp^exp” value in series [2] (compounds 1 to 16) was −3.34.

Consider `C[C@]12CC[C@H]3[C@@H](CCC4=CC(=O)CC[C@@]43C)[C@@H]1CC[C@@H]2O` [compound 12, Testosterone], for which, in series [2] (compounds 1 to 16), the “logKp^exp” value is −2.65.

`C[C@]12CCC(=O)C=C1CC[C@@H]1[C@@H]2CC[C@@]2(C)[C@H]1CC[C@]2(O)C(=O)CO` [compound 13, Cortexolone]: in series [2] (compounds 1 to 16), the “logKp^exp” value is on record as −4.12.

Take `C[C@]12CC[C@@H]3c4ccc(O)cc4CC[C@H]3[C@@H]1CC[C@@H]2O` [compound 14, Estradiol]: the “logKp^exp” value in series [2] (compounds 1 to 16) is listed as −2.21.

For `C[C@]12CCC(=O)C=C1CC[C@@H]1[C@@H]2C(=O)C[C@@]2(C)[C@H]1CC[C@]2(O)C(=O)CO` [compound 16, Cortisone], the “logKp^exp” value in series [2] (compounds 1 to 16) is on record as −5.00.

With `C[C@]12CCC(=O)C=C1CC[C@@H]1[C@@H]2[C@@H](O)C[C@@]2(C)[C@H]1CC[C@]2(O)C(=O)COC(=O)CCCCCO` [compound 23, HC 6-hydroxyhexanoate], in series [2] (setting [3]), the “logKp^exp” value is −3.04.

Regarding `COC(=O)CCCCCC(=O)OCC(=O)[C@@]1(O)CC[C@H]2[C@@H]3CCC4=CC(=O)CC[C@]4(C)[C@H]3[C@@H](O)C[C@@]21C` [compound 25, HC methylpimelate], the “logKp^exp” value in series [2] (setting [3]) is listed as −2.27.

With `CCCCCC(=O)OCC(=O)[C@@]1(O)CC[C@H]2[C@@H]3CCC4=CC(=O)CC[C@]4(C)[C@H]3[C@@H](O)C[C@@]21C` [compound 26, HC hexanoate], the “logKp^exp” value in series [2] (setting [3]) is on record as −1.74.

As for `CCCCCCCC(=O)OCC(=O)[C@@]1(O)CC[C@H]2[C@@H]3CCC4=CC(=O)CC[C@]4(C)[C@H]3[C@@H](O)C[C@@]21C` [compound 27, HC octanoate], the “logKp^exp” value in series [2] (setting [3]) is given as −1.21.

Consider `C[C@]12CC[C@@H]3c4ccc(OC(=O)c5ccccc5)cc4CC[C@H]3[C@@H]1CC[C@@H]2O` [compound 28, Estradiol benzoate], for which the RM in series [1] is listed as 0.91.

For the molecule `CC(=O)OCC(=O)[C@@]1(O)CC[C@H]2[C@@H]3CCC4=CC(=O)CC[C@]4(C)[C@H]3[C@@H](O)C[C@@]21C` [compound 29, HC acetate], the RM in series [1] was −0.12.

As to `CC(=O)OCC(=O)[C@H]1CC[C@H]2[C@@H]3CCC4=CC(=O)CC[C@]4(C)[C@H]3CC[C@]12C` [compound 30, Deoxycortisone acetate], the RM in series [1] amounted to 0.41.

Take `CC(=O)OCC(=O)[C@@]1(O)CC[C@H]2[C@@H]3CCC4=CC(=O)CC[C@]4(C)[C@H]3C(=O)C[C@@]21C` [compound 31, Cortisone acetate]: the RM in series [1] was −0.12.

`CCC(=O)O[C@H]1CC[C@H]2[C@@H]3CCC4=CC(=O)CC[C@]4(C)[C@H]3CC[C@]12C` [compound 32, Testosterone propionate] displayed an RM in series [1] of 0.85.

In turn, `C[C@]12CCC(=O)C=C1CC[C@@H]1[C@@H]2CC[C@@]2(C)[C@H]1CC[C@]2(C)O` [compound 33, Methyltestosterone] displayed an RM in series [1] of 0.41.

Take `CCCCCCC(=O)O[C@H]1CC[C@H]2[C@@H]3CCC4=CC(=O)CC[C@]4(C)[C@H]3CC[C@]12C` [compound 34, Testosterone enanthate]: the RM in series [1] was 1.38.

Molecule `CC(=O)S[C@@H]1CC2=CC(=O)CC[C@]2(C)[C@H]2CC[C@@]3(C)[C@@H](CC[C@@]34CCC(=O)O4)[C@H]12` [compound 35, Spironolactone] displayed an RM in series [1] of 0.14.

In series [1], `COC(=O)[C@@H]1CC2=CC(=O)CC[C@]2(C)[C@@]23O[C@@H]2C[C@@]2(C)[C@@H](CC[C@@]24CCC(=O)O4)[C@H]13` [compound 36, Eplerenone] had an RM of −0.21.

Consider `C[C@H]1O[C@@H](O[C@H]2[C@@H](O)C[C@H](O[C@H]3[C@@H](O)C[C@H](O[C@H]4CC[C@@]5(C)[C@H](CC[C@@H]6[C@@H]5C[C@@H](O)[C@]5(C)[C@@H](C7=CC(=O)OC7)CC[C@]65O)C4)O[C@@H]3C)O[C@@H]2C)C[C@H](O)[C@@H]1O` [compound 37, Digoxin], for which the RM in series [1] was −0.91.

With `C#C[C@]1(O)CC[C@H]2[C@@H]3[C@H](C)CC4=C(CCC(=O)C4)[C@H]3CC[C@@]21C` [compound 38, Tibolone], the RM in series [1] is listed as 0.33.

As for `CC(C)Cc1ccc(C(C)C(=O)O)cc1` (centres unmarked) [compound 39, Ibuprofen], the “logKp^exp” value in series [2] (setting [4]) is listed as −1.44. This molecule had an RM in series [1] of 0.08.

In series [1], `CNC(=C[N+](=O)[O-])NCCSCc1ccc(CN(C)C)o1` [compound 40, Ranitidine] returned an RM of −0.66.

As to `CC(=O)Oc1ccccc1C(=O)O` [compound 41, Aspirin], in series [2] (setting [4]), the “logKp^exp” value is −2.14. Moreover, the RM in series [1] is listed as −0.50.

`COC(=O)c1ccc(O)cc1` [compound 42, Methylparaben]: in series [2] (setting [4]), the “logKp^exp” value was −2.04. In series [1], the RM is reported as −0.41.

For `O=C(O)c1ccccc1O` [compound 43, Salicylic acid], the “logKp^exp” value in series [2] (setting [4]) is on record as −2.84. The molecule also yielded an RM in series [1] of −0.37.

Take `COc1ccc2c(c1)c(CC(=O)O)c(C)n2C(=O)c1ccc(Cl)cc1` [compound 44, Indomethacin]: the RM in series [1] is −0.07.

As for `CN1C(C(=O)Nc2ccccn2)=C(O)c2ccccc2S1(=O)=O` [compound 45, Piroxicam], the “logKp^exp” value in series [2] (setting [4]) is on record as −3.81. The molecule further returned an RM in series [1] of 0.00.

In series [1], `COc1ccc2cc([C@H](C)C(=O)O)ccc2c1` [compound 46, Naproxen] showed an RM of −0.16.
